Source: patent US20080125477A1, “7-(ACRYLOYL) INDOLE COMPOSITIONS AND METHODS OF MAKING AND USING SAME” (DECODE GENETICS, EHF., priority 2006, published 2008)
Converted amounts (≈) assume the structure as drawn.

What was measured:
human platelets = assay: platelet aggregation in vitro, human platelets; type: cell-based; details: agonist Sulprostone (100 nM) and collagen (0.125 ug.mL), Serum % 100
Experimental: (§1) DTSI and related compounds were assayed for their effect on platelet aggregation in vitro. In experiments with human platelets, whole blood was extracted from overnight-fasted human donors. Each experiment was performed with blood from a single individual. In experiments with rodent platelets, whole blood was gathered from the heart of female mice or male rats under isofluran (Abbott) anaesthesia. Blood was pooled from two or ten individual rodents for each experiment in the case of rat and mouse experiments, respectively. In all cases, blood was collected into 3.8% sodium citrate tubes (Greiner Bio-one). Platelet-rich plasma (PRP) was obtained by centrifugation at 100×g for 15 min at 25° C. for humans, at 150×g for rats, or at 80×g for 10 min for mice. Platelet-poor plasma was obtained by centrifugation of the remaining blood at 2,400×g for 10 min at 25° C. After counting in an Autocounter (Model 920 EO, Swelab) platelets were diluted when necessary to the desired stock concentrations (200,000-300,000 platelets/μl) using 0.9% NaCl isotonic solution (Braun).
(§2) Platelet aggregation was determined by light absorbance using a platelet aggregometer with constant magnetic stirring (Model 490, Chronolog Cop., Havertown, Pa., USA), using a volume of 500 μl per cuvette. […] IC50 values were calculated using GraphPad Prism 3.02 for Windows (GraphPad Software, San Diego, Calif. USA). […]

rodent platelets (rat) = assay: platelet aggregation in vitro, rat platelets; type: cell-based; details: agonist Sulprostone (100 nM) and collagen (2.0 ug.mL), Serum % 20
Experimental: as §1, §2

[1] = test system: pulmonary thromboembolism by arachidonic acid; assay: pulmonary thromboembolism assay (platelet aggregation in vivo); details: 100 mg/kg orally, 30 min before arachidonic acid 30 mg/kg i.v.; survival one hour after challenge
Experimental: DTSI was also assayed for its effects on platelet aggregation in vivo. […] For the pulmonary thromboembolism assay, conscious female C57BL/6 mice were dosed orally with the test compounds and 30 min later thromboembolism was induced by injection of arachidonic acid into a tail vein at a dose of 30 mg per kg body weight. Survival was evaluated one hour after the challenge with arachidonic acid, as mice that survive for that length of time usually recovered fully. The arachidonic acid injection was given via a lateral tail vein in a mouse that had been warmed briefly under a heat lamp (dilation of the tail veins using heat facilitates placing the injection). An insulin syringe, 0. 5 mL (from Becton Dickinson) was used for dosing. The dose volume given of both the test compound and the arachidonic acid was adjusted to the weight of the mouse (the dose volume p.o. for test compounds and i.v. for arachidonic acid solution was 10 μL and 5 μL per gram body weight, respectively).

[2] = target: T1, prostanoid hEP3 receptors (Homo sapiens, UniProt P43115); assay: binding on prostanoid hEP3 receptors
T1 sequence (P43115 1-390): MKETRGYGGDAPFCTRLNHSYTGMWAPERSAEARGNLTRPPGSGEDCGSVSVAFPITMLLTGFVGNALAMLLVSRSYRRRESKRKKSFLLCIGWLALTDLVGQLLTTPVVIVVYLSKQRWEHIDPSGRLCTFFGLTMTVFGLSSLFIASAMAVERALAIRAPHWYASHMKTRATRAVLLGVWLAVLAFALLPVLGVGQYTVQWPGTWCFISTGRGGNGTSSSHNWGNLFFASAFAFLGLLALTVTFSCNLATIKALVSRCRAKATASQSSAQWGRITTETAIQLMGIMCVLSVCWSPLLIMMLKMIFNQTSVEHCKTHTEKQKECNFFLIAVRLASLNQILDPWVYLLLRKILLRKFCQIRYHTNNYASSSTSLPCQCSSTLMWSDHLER
Experimental: DTSI and related compounds were assayed for binding on prostanoid hEP3 receptors according to the method of Abramovitz et al [Bioch. Biophys.

[3] = aqueous solubility of micronized DTSI in surfactant/amine solutions; type: physicochemical; details: for solubility at 60 min: thermodynamic from solid, micronized DTSI
Experimental: The solubility of DTSI in aqueous PEG, cyclodextrins, glycerides and other solvent systems was evaluated. Excess amount of the DTSI was added to the aqueous compatible/complexation media, the suspension formed was sonicated for 60 minutes (and also heated up to 75° C. e.g. for cyclodextrins). The suspensions at room temperature were filtered and the amount of dissolved drug was determined by HPLC.

Cc1cn(Cc2ccc(Cl)cc2Cl)c2c(/C=C/C(=O)NS(=O)(=O)c3cc(Cl)c(Cl)s3)cc(F)cc12 [DTSI, 4,5-dichlorothiophene-2-sulfonic acid [(E)-3-[1-(2,4-dichlorophenylmethyl)-5-fluoro-3-methyl-1H-indol-7-yl]-acryloyl]amide]
IC50 (human platelets): 218 nM
IC50 (rodent platelets (rat)): 83 nM
Survival rate [1]: 68%
EP3 receptor antagonism (in words) [2]: potent, selective EP3 receptor antagonist
aqueous solubility (in words) [3]: poor
solubility at 60 min ([3]; aqueous solution of 5% Cremophor RH40, aqueous with cosolvent or surfactant or cyclodextrin, 5% Cremophor RH40): 170 µg/mL (≈ 0.287 mM)
solubility at 60 min ([3]; aqueous solution of 5% Cremophor RH40 and 1% diethanolamine, aqueous with cosolvent or surfactant or cyclodextrin, 5% Cremophor RH40 and 1% diethanolamine): 22700 µg/mL (≈ 38.3 mM)
solubility at 60 min ([3]; aqueous solution of 5% Cremophor RH40 and 1% ethanolamine, aqueous with cosolvent or surfactant or cyclodextrin, 5% Cremophor RH40 and 1% ethanolamine): 8900 µg/mL (≈ 15 mM)
solubility at 60 min ([3]; aqueous solution of 5% Cremophor RH40 and 1% triethanolamine, aqueous with cosolvent or surfactant or cyclodextrin, 5% Cremophor RH40 and 1% triethanolamine): 8300 µg/mL (≈ 14 mM)
solubility at 60 min ([3]; aqueous solution of 5% Cremophor RH40 and 1% tromethamine, aqueous with cosolvent or surfactant or cyclodextrin, 5% Cremophor RH40 and 1% tromethamine): 8700 µg/mL (≈ 14.7 mM)
solubility at 60 min ([3]; aqueous solution of 5% Vitamin E TPGS and 1% choline, aqueous with cosolvent or surfactant or cyclodextrin, 5% Vitamin E TPGS and 1% choline): 46600 µg/mL (≈ 78.7 mM)
solubility at 60 min ([3]; aqueous solution of 5% Vitamin E TPGS and 1% diethanolamine, aqueous with cosolvent or surfactant or cyclodextrin, 5% Vitamin E TPGS and 1% diethanolamine): 20400 µg/mL (≈ 34.4 mM)
solubility at 60 min ([3]; aqueous solution of 5% Vitamin E TPGS and 1% ethanolamine, aqueous with cosolvent or surfactant or cyclodextrin, 5% Vitamin E TPGS and 1% ethanolamine): 19200 µg/mL (≈ 32.4 mM)
solubility at 60 min ([3]; aqueous solution of 5% Vitamin E TPGS and 1% triethanolamine, aqueous with cosolvent or surfactant or cyclodextrin, 5% Vitamin E TPGS and 1% triethanolamine): 9200 µg/mL (≈ 15.5 mM)
solubility at 60 min ([3]; aqueous solution of 5% Vitamin E TPGS and 1% tromethamine, aqueous with cosolvent or surfactant or cyclodextrin, 5% Vitamin E TPGS and 1% tromethamine): 8500 µg/mL (≈ 14.4 mM)
solubility at 60 min ([3]; aqueous solution of 5% Vitamin E TPGS and 5% diethanolamine, aqueous with cosolvent or surfactant or cyclodextrin, 5% Vitamin E TPGS and 5% diethanolamine): 58500 µg/mL (≈ 98.8 mM)
solubility at 60 min ([3]; aqueous solution of 5% Vitamin E TPGS, aqueous with cosolvent or surfactant or cyclodextrin, 5% Vitamin E TPGS): 100 µg/mL (≈ 0.169 mM)
solubility at 60 min ([3]; aqueous with cosolvent or surfactant or cyclodextrin, 5% Vitamin E TPGS and 0.5% diethanolamine): 15600 µg/mL (≈ 26.3 mM)
